Test results reported in publication PMC7986981 (ACS Pharmacology & Translational Science, 2021).
Where two headings read alike, the source gives them in different places. Where a SMILES comes first, the peptide text is derived from it. The star is where a group is joined. Cbz = O=C(OCc1ccccc1)*

Experiments:
[1] = tested on: SARS-CoV-2 cytopathic effect in Vero-E6 cells; assay type: cell-based
SARS-CoV-2 3CL-Pro = SARS-CoV-2 3CL-Pro (Severe acute respiratory syndrome coronavirus 2, UniProt P0DTD1); experiment: biochemical; assay type: biochemical
SARS-CoV 3CL-Pro = conditions: cited from earlier work
[2] = oral drugs, no reference given; cited from earlier work
[3] = tested on: SARS-CoV-2 CPE in Caco-2 cells; conditions: cited from earlier work
chymotrypsin = assay type: biochemical; conditions: 1 mM DTT
MERS 3CL-Pro = MERS 3CL-Pro (Middle East respiratory syndrome-related coronavirus, UniProt K9N7C7); assay type: biochemical; conditions: read-out: IC50 MERS 3CL-Pro
deubiquitinating enzymes = conditions: read-out: IC50 values against several deubiquitinating enzymes; cited from earlier work
SARS-CoV-2 = assay type: cell-based; conditions: read-out: vRNA reduction / viral replication IC50 in Vero-E6 (qPCR)
[4] = read-out: SARS-CoV-2 3CL-Pro IC50, without DTT, values given in nM
[5] = read-out: SARS-CoV-2 3CL-Pro IC50
[6] = 20 μM compound, result in words
[7] = read-out: HP 3CL-Pro IC50, hit profiling, without DTT

MERS 3CL-Pro, sequence (K9N7C7 3248-3553 limits assumed): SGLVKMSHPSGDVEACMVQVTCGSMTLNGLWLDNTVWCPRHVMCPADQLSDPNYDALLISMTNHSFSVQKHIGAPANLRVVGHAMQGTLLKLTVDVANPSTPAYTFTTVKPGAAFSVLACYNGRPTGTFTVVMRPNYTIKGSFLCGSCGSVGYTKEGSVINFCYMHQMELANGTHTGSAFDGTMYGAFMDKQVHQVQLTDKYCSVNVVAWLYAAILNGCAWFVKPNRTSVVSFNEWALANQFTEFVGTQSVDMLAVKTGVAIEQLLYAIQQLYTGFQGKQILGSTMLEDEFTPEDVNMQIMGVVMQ

Compound: CC[C@H](CO)Nc1nc(NCc2ccc(-c3ccccn3)cc2)c2ncn(C(C)C)c2n1 [CR8-(R)]
- anti-CPE effect in Vero-E6 phenotypic assay [1]: no anti-CPE effect
- IC50 (SARS-CoV-2 3CL-Pro; read-out: HP 3CL-Pro IC50): 800 nM

Compound: COC(=O)CC[C@H](NC(=O)[C@H](CC(=O)OC)NC(=O)OCc1ccccc1)C(=O)N[C@H](C(=O)N[C@@H](CC(=O)OC)C(=O)CF)C(C)C [Z-DEVD-FMK]
- anti-CPE effect in Vero-E6 phenotypic assay [1]: did not influence CPE
- fold higher potency than previously reported (SARS-CoV-2 3CL-Pro; own IC50 versus literature reports (Z-DEVD-FMK: ref 13)): 600 fold
- IC50 (SARS-CoV-2 3CL-Pro; [4]): 10 nM

Compound: Oc1cc2c(cc1O)[C@H]1c3ccccc3CN[C@@H]1CC2 (racemic) [Dihydrexidine]
- IC50 (SARS-CoV-2 3CL-Pro; HP 3CL-Pro IC50 (μM), hit profiling, without DTT): 1100 nM

Compound: CCOC(=O)/C=C/[C@H](C[C@@H]1CCNC1=O)NC(=O)[C@@H](CC(=O)[C@@H](NC(=O)c1cc(C)on1)C(C)C)Cc1ccc(F)cc1 [rupintrivir]
- activity against SARS-CoV 3CL-Pro (SARS-CoV 3CL-Pro): lacks activity

Compound: CN1CCc2cccc3c2[C@H]1Cc1ccc(O)c(O)c1-3 [apomorphine]
- measured acute toxicity in rodents [2]: higher than 5 mg/kg

Compound: zinc pyrithione
- IC50 (SARS-CoV 3CL-Pro; read-out: SARS-CoV 3CL-Pro IC50): 0.8 µM
- effect of DTT (0 and 1 mM) on SARS-CoV-2 3CL-Pro inhibition (SARS-CoV-2 3CL-Pro): lost its inhibitory effects in the presence of DTT
- effect of preincubation time (15, 30, 60 min) on inhibition (SARS-CoV-2 3CL-Pro): increased with preincubation time
- fold more potent after preincubation at 37 °C versus 25 °C (SARS-CoV-2 3CL-Pro): 3 fold

Compound: Oc1c(I)cc(I)c(O)c1I [riodoxol]
- measured acute toxicity in rodents [2]: higher than 5 mg/kg

Compound: Nc1nc2c(ncn2[C@@H]2O[C@H](CO)[C@@H](O)[C@H]2O)c(=S)[nH]1 [Thioguanosine]
- anti-CPE activity against SARS-CoV-2 in Caco-2 cells (words) [3]: anti-SARS-CoV-2 CPE effects
- anti-CPE activity against SARS-CoV-2 in Caco-2 cells (words) ([3]; listed as thioguanosine): active

Compound: COCCCOc1ccnc(C[S+]([O-])c2nc3ccccc3[nH]2)c1C (stereo not drawn) [rabeprazole]
- measured acute toxicity in rodents [2]: higher than 5 mg/kg

Compound: Oc1cc(CNC(=S)/C=C/c2cc(O)c(O)c(Br)c2)cc(O)c1O [NT-157]
- IC50 (SARS-CoV-2 3CL-Pro; read-out: SARS-CoV-2 3CL-Pro IC50 (unit inferred)): 500 nM

Compound: O=c1c(O)c(-c2cc(O)c(O)c(O)c2)oc2cc(O)cc(O)c12 [Myricetin]
- anti-CPE effect in Vero-E6 phenotypic assay [1]: not reflected in anti-CPE

Compound: O=c1c2cc(F)ccc2sn1-c1cc(S(=O)(=O)N2CCOCC2)ccc1N1CCOCC1 [ML345]
- IC50 (SARS-CoV-2 3CL-Pro; [5]): 20 nM

Compound: O=c1c2ccccc2sn1-c1ccccc1 [PD08290]
- IC50 (SARS-CoV-2 3CL-Pro; [5]): 20 nM

Compound: CCN(CC)C(=S)SSC(=S)N(CC)CC [Disulfiram]
- effect of DTT (0 and 1 mM) on SARS-CoV-2 3CL-Pro inhibition (SARS-CoV-2 3CL-Pro; [6]): loss of inhibitory capacity

Compound: O=c1c2ccccc2[se]n1-c1ccccc1 [Ebselen]
- effect of DTT (0 and 1 mM) on SARS-CoV-2 3CL-Pro inhibition (SARS-CoV-2 3CL-Pro): loss of inhibitory capacity

Compound: CC(C)(C)NC(=O)N[C@H](C(=O)N1C[C@H]2[C@@H]([C@H]1C(=O)NC(CC1CCC1)C(=O)C(N)=O)C2(C)C)C(C)(C)C (stereo partly drawn) [boceprevir]
- inhibition at 20 µM (SARS-CoV-2 3CL-Pro; read-out: HC 3CL-Pro Inhibition [%] (20 μM), hit confirmation, triplicate, 20 μM compound): < 50%

Compound: Cc1ccc(C)c(-n2sc3cc(F)ccc3c2=O)c1 [MLS0315771]
- IC50 (SARS-CoV-2 3CL-Pro; [5]): 20 nM

Compound: CCCCCCNC(=O)n1cc(F)c(=O)[nH]c1=O [Carmofur]
- Chymotrypsin Inhibition [%] +DTT (10 μM) (chymotrypsin): 14%
- effect of DTT (0 and 1 mM) on SARS-CoV-2 3CL-Pro inhibition (SARS-CoV-2 3CL-Pro; [6]): insensitive to DTT

Compound: O=C(O[C@@H]1Cc2c(O)cc(O)cc2O[C@@H]1c1cc(O)c(O)c(O)c1)c1cc(O)c(O)c(O)c1 [epigallocatechin gallate, (-)-Epigallocatechin gallate]
- effect of DTT (0 and 1 mM) on SARS-CoV-2 3CL-Pro inhibition (SARS-CoV-2 3CL-Pro; [6]): did not show DTT dependence

Compound: NC(CO)C(=O)NNCc1ccc(O)c(O)c1O (stereo not drawn) [Benserazide hdrochloride]
- measured acute toxicity in rodents [2]: higher than 5 mg/kg

Compound: O=c1cc(-c2ccccc2)oc2cc(O)c(O)c(O)c12 [Baicalein]
- effect of DTT (0 and 1 mM) on SARS-CoV-2 3CL-Pro inhibition (SARS-CoV-2 3CL-Pro; [6]): loss of inhibitory capacity

Compound: Cc1ccc(-n2sc3ccccc3c2=O)cc1 [PBIT]
- IC50 (SARS-CoV-2 3CL-Pro; [5]): 20 nM

Compound: CC(Cc1ccc(O)c(O)c1)C(C)Cc1ccc(O)c(O)c1 (stereo not drawn) [nordihydroguaiaretic acid]
- IC50 (SARS-CoV-2 3CL-Pro; [7]): 2590 nM

Compound: CCC(C)SSc1ncc[nH]1 (stereo not drawn) [PX-12]
- IC50 (MERS 3CL-Pro): 7.6 µM

Compound: O=c1sn(-c2cccc3ccccc23)c(=O)n1Cc1ccccc1 [Tideglusib]
- effect of DTT (0 and 1 mM) on SARS-CoV-2 3CL-Pro inhibition (SARS-CoV-2 3CL-Pro; [6]): loss of inhibitory capacity

Compound: N#CSc1cc(SC#N)c(N)nc1N [PR-619]
- anti-CPE effect in Vero-E6 phenotypic assay [1]: inactive
- IC50 (MERS 3CL-Pro): 2.3 µM
- IC50 (deubiquitinating enzymes): 2 to 10 µM
- anti-CPE activity against SARS-CoV-2 in Caco-2 cells (words) [3]: inactive
- IC50 (SARS-CoV-2 3CL-Pro; [7]): 400 nM

Compound: CC(C)C[C@@H](C=O)NC(=O)[C@H](CC(C)C)NC(=O)[C@H](CC(C)C)NC(=O)OCc1ccccc1 [MG-132] (Cbz-Leu-Leu-Leu-aldehyde)
- IC50 (SARS-CoV-2): 0.1 µM
- anti-CPE activity against SARS-CoV-2 in Caco-2 cells (words) [3]: active

Compound: CCCC[C@@H](C=O)NC(=O)[C@H](CC(C)C)NC(=O)OCc1ccccc1 [calpeptin]
- effect of DTT (0 and 1 mM) on SARS-CoV-2 3CL-Pro inhibition (SARS-CoV-2 3CL-Pro; [6]): retained its inhibitory effect independent of DTT
- effect of preincubation time (15, 30, 60 min) on inhibition (SARS-CoV-2 3CL-Pro; 25 °C, 20 μM, result in words): unchanged

Compound: [H]/N=C(\N/C(=N/[H])NCCCCCCNC(=N)NC(=N)Nc1ccc(Cl)cc1)Nc1ccc(Cl)cc1 [Chlorhexidine]
- effect of DTT (0 and 1 mM) on SARS-CoV-2 3CL-Pro inhibition (SARS-CoV-2 3CL-Pro; [6]): not an effective inhibitor

Compound: CC(=O)[O][Hg][c]1ccccc1 [phenylmercuric acetate]
- IC50 (SARS-CoV-2 3CL-Pro; [4]): 10 nM

Compound: Cn1sc(=O)n(Cc2ccccc2)c1=O [TDZD-8]
- effect of DTT (0 and 1 mM) on SARS-CoV-2 3CL-Pro inhibition (SARS-CoV-2 3CL-Pro; [6]): insensitive to DTT
